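1) Cells in 96-well plates. 2) Compound, 48 h, 5 concentrations. 3) Linear interpolation between surrounding doses. 4) Unreached endpoint = highest concentration. The concentration for 50% growth inhibition is given as GI50. At the TGI there is no net growth.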
Tests used:
Assay in all cases: NCI tumour cell line growth inhibition, 48 h
CAKI-1 renal = system: CAKI-1 renal
HOP-92 NSCLC = system: HOP-92 NSCLC
HCT-15 colon = system: HCT-15 colon
K-562 leukemia = system: K-562 leukemia
HCT-116 colon = system: HCT-116 colon
NCI-H23 lung = system: NCI-H23 lung
HOP-62 NSCLC = system: HOP-62 NSCLC
MDA-MB-231 breast = system: MDA-MB-231 breast
RXF 393 renal = system: RXF 393 renal
NCI-H460 lung = system: NCI-H460 lung

Structure (SMILES)	GI50 (CAKI-1 renal) [µM]	TGI (CAKI-1 renal) [µM]	GI50 (HOP-92 NSCLC) [µM]	TGI (HOP-92 NSCLC) [µM]	GI50 (HCT-15 colon) [µM]	TGI (HCT-15 colon) [µM]	GI50 (K-562 leukemia) [µM]	TGI (K-562 leukemia) [µM]	GI50 (HCT-116 colon) [µM]	TGI (HCT-116 colon) [µM]	GI50 (NCI-H23 lung) [µM]	TGI (NCI-H23 lung) [µM]	GI50 (HOP-62 NSCLC) [µM]	TGI (HOP-62 NSCLC) [µM]	GI50 (MDA-MB-231 breast) [µM]	TGI (MDA-MB-231 breast) [µM]	GI50 (RXF 393 renal) [µM]	TGI (RXF 393 renal) [µM]	GI50 (NCI-H460 lung) [µM]	TGI (NCI-H460 lung) [µM]
COc1cc2c3c(n(CCCN(C)C)c(=O)c2cc1OC)-c1ccccc1C3=O	12.7	> 77.9	23.2	> 100	17.8	> 53.3	4.39	24.4	3.71	16.6	10.6	> 72	3.57	> 89.8	10.6	23.6	6.68	24.7	3.51	21.6
N#C/C(=C/N1CCN(C(=O)c2ccco2)C1=S)C(=O)c1ccccc1	12.5	44.4	26.9	> 100	5.73	> 100	5.51	> 100	9.12	57	15.2	43.5	22	47	13.7	40.8	4.09	19.4	9.52	> 100
CCc1ccccc1NC(=O)c1sc2nc3c(cc2c1N)C(=O)CCC3	0.504	> 100	–	–	0.406	> 100	0.275	> 100	0.512	> 100	0.711	> 100	0.587	> 68.5	1.49	> 100	0.191	0.852	0.367	> 100
COc1cc2ncn(-c3cc(OCCc4ccccc4)c(C(N)=O)s3)c2cc1OC	> 25	> 25	19.6	> 25	> 25	> 25	> 25	> 25	24.6	> 25	> 25	> 25	> 25	> 25	24.6	> 25	9.53	> 25	> 25	> 25
Cc1cn2c(/C=C3\C(=O)N(C)c4ccc(O)cc43)c(C)nc2s1	5.13	45.8	31.7	> 100	4.16	> 100	2.01	20.6	4.04	> 100	11.9	> 100	18.2	> 100	7.89	> 100	36	> 100	3.54	21.3
CC(C)S(=O)(=O)c1ccccc1Nc1nc(Nc2cccc(NC(=O)CN)c2)ncc1Cl	0.2	7.25	0.102	1.55	0.16	3.72	0.198	2.55	0.0403	0.696	0.208	1.03	0.112	6.13	0.239	3.97	0.0565	0.302	0.0306	1.64
COc1cc2c(cc1O)C1Cc3ccc(OC)c(O)c3C(C2)N1C (configuration not stated)	–	> 100	–	> 100	–	> 100	–	–	–	> 100	–	> 100	–	> 100	–	> 100	–	> 100	–	> 100
COc1ccc(-c2ccc(/C=N/n3c(C)n[nH]c3=S)o2)c([N+](=O)[O-])c1	> 100	> 100	12.4	45.4	> 100	> 100	> 100	> 100	> 100	> 100	> 100	> 100	46	> 100	–	–	32.8	> 100	> 100	> 100
Cc1cc(N/N=C/c2nc(-c3ccc(Br)cc3)oc2C)c2cc(Br)ccc2n1	8.15	20.6	2.5	14.4	2.88	10.2	–	–	3.52	12.2	6.25	22.8	2.32	5.84	2.95	10.1	5	19.8	–	–
O=C(COc1ccc(/C=C2\CSc3ccccc3C2=O)cc1)Nc1nccs1	12.8	25.3	0.026	9.46	4.03	14.7	3.11	> 100	4.32	14.7	11.7	24.3	16.3	30.8	14.4	35	–	–	15.9	31.9
O=c1[nH]cnc2cccc(Cl)c12	–	> 100	–	–	–	> 100	–	> 100	–	> 100	–	> 100	–	> 100	–	> 100	–	> 100	–	> 100
COc1ccc(Nc2c3ccccc3nc3occ(Cl)c23)cc1	< 0.01	16.3	0.0165	7.17	< 0.01	–	< 0.01	> 35.1	< 0.01	3.29	0.0549	28.8	< 0.0156	19.1	< 0.01	0.0648	–	–	< 0.01	8.18
O=C(Nc1cc(Cl)ccc1Cl)C(=O)C(c1cnc2ccccc2n1)[N+](=O)[O-] (configuration not stated)	–	> 100	–	> 100	–	> 100	–	> 100	–	> 100	–	> 100	–	> 100	–	–	–	> 100	–	> 100
Cn1cc(C2=C(c3cn(CCCCCN)c4ccccc34)C(=O)NC2=O)c2ccccc21	8.25	> 25	–	–	7.01	> 25	9.14	> 25	5.85	> 16.7	9.98	> 25	15.2	> 25	17.1	> 25	3.66	9.47	9.73	> 25

— PubChem BioAssay (NCI)
